Data on one molecule can be found in paper PMC9575003 (Pharmacology, biochemistry, and behavior, 2016).

Test [1] concerns the target hNET (norepinephrine transporter) (Homo sapiens, UniProt P23975). Kind of test: in vitro binding affinity.
For the next test, the target named is dopamine D4 receptor (Homo sapiens, UniProt P21917). Nature of the test: Ki, apparently from the radioligand screening panel.
The target in test [2] is hSERT (serotonin transporter) (Homo sapiens, UniProt P31645). Nature of the test: in vitro binding affinity.
For test [3], the target named is hDAT (dopamine transporter) (Homo sapiens, UniProt Q01959). Nature of the test: in vitro binding affinity.
Sequence of hDAT (dopamine transporter) (Q01959 whole entry): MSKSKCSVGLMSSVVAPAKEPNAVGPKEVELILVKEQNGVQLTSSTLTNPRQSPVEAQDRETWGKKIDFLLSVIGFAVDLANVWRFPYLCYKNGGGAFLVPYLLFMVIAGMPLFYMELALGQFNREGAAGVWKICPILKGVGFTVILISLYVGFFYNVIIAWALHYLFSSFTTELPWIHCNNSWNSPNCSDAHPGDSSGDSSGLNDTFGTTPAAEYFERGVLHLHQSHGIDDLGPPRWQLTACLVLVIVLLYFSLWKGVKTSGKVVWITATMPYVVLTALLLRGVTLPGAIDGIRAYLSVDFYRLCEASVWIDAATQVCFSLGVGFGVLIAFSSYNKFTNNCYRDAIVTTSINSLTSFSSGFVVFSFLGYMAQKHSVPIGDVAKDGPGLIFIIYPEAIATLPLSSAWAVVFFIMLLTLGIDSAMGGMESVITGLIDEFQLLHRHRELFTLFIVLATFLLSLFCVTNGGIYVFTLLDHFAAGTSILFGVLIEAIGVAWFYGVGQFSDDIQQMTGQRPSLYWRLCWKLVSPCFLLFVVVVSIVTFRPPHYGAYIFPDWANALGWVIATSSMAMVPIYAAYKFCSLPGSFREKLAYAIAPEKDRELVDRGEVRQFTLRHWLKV

Sequence of hNET (norepinephrine transporter) (P23975 whole entry): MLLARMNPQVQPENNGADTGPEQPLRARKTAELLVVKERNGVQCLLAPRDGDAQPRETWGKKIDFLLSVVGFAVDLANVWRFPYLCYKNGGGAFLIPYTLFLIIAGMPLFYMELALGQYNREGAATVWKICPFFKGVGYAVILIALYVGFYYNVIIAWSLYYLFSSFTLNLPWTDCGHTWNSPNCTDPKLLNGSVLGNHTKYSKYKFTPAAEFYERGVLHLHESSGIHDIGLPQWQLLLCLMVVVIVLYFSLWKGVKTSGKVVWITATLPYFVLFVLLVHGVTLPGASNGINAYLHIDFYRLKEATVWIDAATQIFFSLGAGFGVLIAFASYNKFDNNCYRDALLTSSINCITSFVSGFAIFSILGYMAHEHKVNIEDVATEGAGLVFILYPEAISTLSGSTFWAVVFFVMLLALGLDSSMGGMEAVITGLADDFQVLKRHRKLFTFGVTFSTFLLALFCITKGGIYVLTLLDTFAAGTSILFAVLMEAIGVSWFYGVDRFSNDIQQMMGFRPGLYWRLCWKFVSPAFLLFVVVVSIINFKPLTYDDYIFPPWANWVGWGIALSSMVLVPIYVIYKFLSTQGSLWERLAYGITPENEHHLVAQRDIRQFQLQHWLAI
Sequence of hSERT (serotonin transporter) (P31645 whole entry): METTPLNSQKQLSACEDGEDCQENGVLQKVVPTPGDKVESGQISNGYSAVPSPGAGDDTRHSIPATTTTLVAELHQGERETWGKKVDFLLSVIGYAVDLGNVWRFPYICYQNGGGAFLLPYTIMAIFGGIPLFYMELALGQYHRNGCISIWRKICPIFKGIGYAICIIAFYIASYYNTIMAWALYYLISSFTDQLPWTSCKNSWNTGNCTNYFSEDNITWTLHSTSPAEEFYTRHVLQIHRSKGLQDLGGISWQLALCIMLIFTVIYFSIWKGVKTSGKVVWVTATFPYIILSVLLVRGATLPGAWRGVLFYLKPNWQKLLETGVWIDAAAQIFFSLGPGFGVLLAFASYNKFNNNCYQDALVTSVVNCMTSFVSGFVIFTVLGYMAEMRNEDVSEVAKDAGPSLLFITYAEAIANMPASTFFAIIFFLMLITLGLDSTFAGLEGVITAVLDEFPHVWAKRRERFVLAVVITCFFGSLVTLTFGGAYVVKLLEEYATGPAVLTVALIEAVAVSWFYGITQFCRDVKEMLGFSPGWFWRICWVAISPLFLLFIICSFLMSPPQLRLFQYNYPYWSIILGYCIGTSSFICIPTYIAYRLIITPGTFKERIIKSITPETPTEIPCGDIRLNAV
Sequence of dopamine D4 receptor (P21917 whole entry): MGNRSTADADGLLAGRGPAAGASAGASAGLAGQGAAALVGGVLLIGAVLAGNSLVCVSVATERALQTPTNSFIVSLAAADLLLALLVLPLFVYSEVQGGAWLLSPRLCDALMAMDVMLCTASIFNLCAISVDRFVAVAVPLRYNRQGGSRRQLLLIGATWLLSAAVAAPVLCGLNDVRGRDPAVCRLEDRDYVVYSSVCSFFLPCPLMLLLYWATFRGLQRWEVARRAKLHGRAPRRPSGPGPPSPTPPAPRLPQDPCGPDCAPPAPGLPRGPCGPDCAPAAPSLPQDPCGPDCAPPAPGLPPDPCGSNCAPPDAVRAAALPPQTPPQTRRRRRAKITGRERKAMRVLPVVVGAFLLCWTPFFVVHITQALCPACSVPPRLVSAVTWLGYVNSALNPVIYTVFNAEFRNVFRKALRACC

On to `C[C@@H](CN1CCC(Cc2ccccc2)CC1)C(O)c1ccc(O)cc1` (stereo partly shown) [MI-4, Ro-25-6981], for which the Ki is 365 nM in test [1], 120 nM at dopamine D4 receptor, 670 nM in test [2] and 3.46 µM in test [3].
